{"source": "patent US12042485B2", "about": "“Methods of minimizing cancer metastasis” (MEDICINOVA, INC., priority 2021, dated 2024)", "key": {"[1]": {"molecular_target": "T1, macrophage inhibitory factor (MIF) (Homo sapiens, UniProt P14174)", "T1 sequence (P14174 2-115 limits assumed)": "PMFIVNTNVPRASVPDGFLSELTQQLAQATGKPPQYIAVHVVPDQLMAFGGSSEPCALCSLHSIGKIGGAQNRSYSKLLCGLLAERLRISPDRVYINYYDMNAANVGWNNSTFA", "settings": "Cho et al., PNAS-USA 2010; cited from earlier work"}, "[2]": {"settings": "Sanftner et al Xenobiotica 2009; cited from earlier work"}, "PDE 3A": {"molecular_target": "PDE 3A (Homo sapiens, UniProt Q14432)", "sequence (Q14432 whole entry)": "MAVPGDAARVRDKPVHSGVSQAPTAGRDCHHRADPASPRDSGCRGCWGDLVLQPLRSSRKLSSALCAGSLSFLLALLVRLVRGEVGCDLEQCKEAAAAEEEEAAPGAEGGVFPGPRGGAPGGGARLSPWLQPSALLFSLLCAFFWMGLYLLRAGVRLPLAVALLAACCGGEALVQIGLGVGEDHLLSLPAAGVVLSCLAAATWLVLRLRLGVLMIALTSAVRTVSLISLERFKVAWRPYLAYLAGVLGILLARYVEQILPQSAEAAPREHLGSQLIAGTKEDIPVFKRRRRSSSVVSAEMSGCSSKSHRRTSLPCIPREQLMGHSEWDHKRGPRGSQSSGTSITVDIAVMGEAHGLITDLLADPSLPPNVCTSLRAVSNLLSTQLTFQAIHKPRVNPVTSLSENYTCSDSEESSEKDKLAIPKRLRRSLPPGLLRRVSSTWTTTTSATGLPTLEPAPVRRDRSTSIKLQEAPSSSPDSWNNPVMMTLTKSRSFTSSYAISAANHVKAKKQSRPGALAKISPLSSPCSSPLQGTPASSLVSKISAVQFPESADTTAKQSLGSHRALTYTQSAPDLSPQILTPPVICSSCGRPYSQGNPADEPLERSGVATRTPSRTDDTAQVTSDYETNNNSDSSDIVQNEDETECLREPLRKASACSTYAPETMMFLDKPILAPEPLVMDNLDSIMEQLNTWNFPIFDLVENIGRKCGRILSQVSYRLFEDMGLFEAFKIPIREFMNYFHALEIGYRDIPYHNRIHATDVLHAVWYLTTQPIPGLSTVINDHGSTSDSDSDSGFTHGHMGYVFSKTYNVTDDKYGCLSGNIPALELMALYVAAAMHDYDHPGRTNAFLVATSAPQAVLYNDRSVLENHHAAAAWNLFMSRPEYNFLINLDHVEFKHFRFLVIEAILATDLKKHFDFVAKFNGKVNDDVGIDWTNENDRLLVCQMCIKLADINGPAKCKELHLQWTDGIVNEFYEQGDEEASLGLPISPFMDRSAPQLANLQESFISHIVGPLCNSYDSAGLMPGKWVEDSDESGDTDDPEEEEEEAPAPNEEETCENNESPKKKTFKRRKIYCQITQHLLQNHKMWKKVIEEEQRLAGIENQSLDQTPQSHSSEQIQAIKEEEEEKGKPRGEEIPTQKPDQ", "settings": "Gibson et al., Eur. J. Pharmacol. 2006; cited from earlier work"}, "PDE 4": {"test_system": "PDE 4", "settings": "Gibson et al., Eur. J. Pharmacol. 2006; cited from earlier work"}, "PDE 10A1": {"molecular_target": "PDE 10A1 (Homo sapiens, UniProt Q9Y233)", "sequence (Q9Y233 1-779 isoform Q9Y233-1)": "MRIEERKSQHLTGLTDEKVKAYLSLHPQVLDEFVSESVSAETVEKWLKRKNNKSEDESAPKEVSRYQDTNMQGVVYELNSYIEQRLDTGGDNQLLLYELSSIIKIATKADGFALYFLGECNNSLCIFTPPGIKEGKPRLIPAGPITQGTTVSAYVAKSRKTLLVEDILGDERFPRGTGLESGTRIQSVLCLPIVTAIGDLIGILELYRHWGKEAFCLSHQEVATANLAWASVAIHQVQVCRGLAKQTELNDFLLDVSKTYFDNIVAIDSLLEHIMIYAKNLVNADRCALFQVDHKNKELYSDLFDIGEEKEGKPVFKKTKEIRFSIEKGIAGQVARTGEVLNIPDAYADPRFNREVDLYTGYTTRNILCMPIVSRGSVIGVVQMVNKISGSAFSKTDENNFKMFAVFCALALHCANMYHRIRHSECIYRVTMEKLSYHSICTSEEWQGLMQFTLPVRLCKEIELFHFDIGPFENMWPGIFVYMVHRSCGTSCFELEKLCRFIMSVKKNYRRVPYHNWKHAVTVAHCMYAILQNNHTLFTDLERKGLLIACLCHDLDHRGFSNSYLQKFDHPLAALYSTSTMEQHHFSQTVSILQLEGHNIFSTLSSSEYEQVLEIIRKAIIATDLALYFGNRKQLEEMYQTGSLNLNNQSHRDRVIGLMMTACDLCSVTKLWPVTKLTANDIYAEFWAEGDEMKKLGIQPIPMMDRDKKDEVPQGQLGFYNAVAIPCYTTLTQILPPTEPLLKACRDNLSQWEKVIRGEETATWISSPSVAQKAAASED", "settings": "Gibson et al., Eur. J. Pharmacol. 2006; cited from earlier work"}, "PDE 11A1": {"molecular_target": "PDE 11A1 (Homo sapiens, UniProt Q9HCR9)", "sequence (Q9HCR9 445-933)": "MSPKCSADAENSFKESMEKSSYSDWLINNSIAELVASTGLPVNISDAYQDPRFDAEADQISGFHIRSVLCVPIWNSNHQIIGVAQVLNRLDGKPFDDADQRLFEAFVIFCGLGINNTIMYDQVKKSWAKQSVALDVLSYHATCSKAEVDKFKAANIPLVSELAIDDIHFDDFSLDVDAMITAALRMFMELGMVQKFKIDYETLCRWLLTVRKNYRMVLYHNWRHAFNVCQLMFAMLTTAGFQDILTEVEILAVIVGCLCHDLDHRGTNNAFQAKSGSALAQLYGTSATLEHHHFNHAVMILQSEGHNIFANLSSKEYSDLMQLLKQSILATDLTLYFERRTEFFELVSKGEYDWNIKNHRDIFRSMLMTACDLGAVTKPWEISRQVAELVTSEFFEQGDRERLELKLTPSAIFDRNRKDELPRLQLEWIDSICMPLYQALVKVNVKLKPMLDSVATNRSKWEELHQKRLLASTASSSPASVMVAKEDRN", "settings": "Gibson et al., Eur. J. Pharmacol. 2006; cited from earlier work"}, "[3]": {"molecular_target": "toll-like receptor-4 (TLR4) (Homo sapiens, UniProt O00206)", "sequence (O00206 24-839, species assumed)": "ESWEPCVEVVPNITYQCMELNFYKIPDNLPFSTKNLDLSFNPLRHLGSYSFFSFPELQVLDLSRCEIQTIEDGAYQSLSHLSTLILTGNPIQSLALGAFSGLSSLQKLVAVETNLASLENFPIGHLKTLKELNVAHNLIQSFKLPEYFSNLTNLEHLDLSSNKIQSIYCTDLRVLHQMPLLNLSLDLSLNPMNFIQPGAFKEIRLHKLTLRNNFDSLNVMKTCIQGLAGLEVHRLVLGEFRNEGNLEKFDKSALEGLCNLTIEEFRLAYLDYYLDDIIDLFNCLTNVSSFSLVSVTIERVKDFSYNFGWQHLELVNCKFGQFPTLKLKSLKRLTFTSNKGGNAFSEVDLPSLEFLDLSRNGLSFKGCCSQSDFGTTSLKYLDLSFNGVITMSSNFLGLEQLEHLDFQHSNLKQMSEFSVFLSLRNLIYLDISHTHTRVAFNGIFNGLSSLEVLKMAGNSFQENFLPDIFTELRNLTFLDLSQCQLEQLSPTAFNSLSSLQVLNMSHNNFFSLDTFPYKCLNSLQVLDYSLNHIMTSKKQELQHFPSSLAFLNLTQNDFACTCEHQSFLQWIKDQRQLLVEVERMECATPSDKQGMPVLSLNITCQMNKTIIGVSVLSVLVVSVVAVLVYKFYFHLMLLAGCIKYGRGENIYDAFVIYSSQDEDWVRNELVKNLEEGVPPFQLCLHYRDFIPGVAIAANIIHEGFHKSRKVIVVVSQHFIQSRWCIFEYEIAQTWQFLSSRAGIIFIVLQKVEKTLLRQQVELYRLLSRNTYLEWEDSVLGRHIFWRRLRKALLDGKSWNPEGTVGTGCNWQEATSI", "sequence (Q9Y6Y9 17-160 partner limits assumed, species assumed)": "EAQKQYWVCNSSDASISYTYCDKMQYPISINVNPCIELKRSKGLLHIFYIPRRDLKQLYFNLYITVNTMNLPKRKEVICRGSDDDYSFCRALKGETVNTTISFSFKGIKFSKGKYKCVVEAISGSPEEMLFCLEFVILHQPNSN", "settings": "Yang et al., Cell Death and Disease 2016; cited from earlier work"}, "MIF": {"test_system": "MIF", "test": "plasma level of MIF after ibudilast", "settings": "found by the inventors; no data given"}}}
{"smiles": "CC(C)C(=O)c1c(C(C)C)nn2ccccc12", "note": "[ibudilast, 2-methyl-1-(2-(1-methylethyl)pyrazolo(1,5-a)pyridin-3-yl)1-propanone]", "values": [{"measurement": "inhibition of HPP tautomerase activity of MIF", "setting": "[1]", "result": "allosteric inhibitor"}, {"measurement": "CNS penetration", "setting": "[2]", "result": "good CNS penetration"}, {"measurement": "inhibition of PDE 3A", "setting": "PDE 3A", "result": "selective inhibitor"}, {"measurement": "inhibition of PDE 4", "setting": "PDE 4", "result": "selective inhibitor"}, {"measurement": "inhibition of PDE 10A1", "setting": "PDE 10A1", "result": "selective inhibitor"}, {"measurement": "inhibition of PDE 11A1", "setting": "PDE 11A1", "result": "selective inhibitor"}, {"measurement": "TLR4 antagonistic activity", "setting": "[3]", "result": "antagonistic activity"}, {"measurement": "plasma level of MIF", "setting": "MIF", "result": "lowers"}]}
